US4910017A, “New compounds WF 2015 A and B” (Fujisawa Pharmaceutical Company, Ltd., priority 1987, dated 1990)

Legend:
[1] = test system: Human lung adenocarcinoma A549 cell; assay: TEST 2: in vitro cytotoxicity of WF 2015, A549 cells; format: cell-based; settings: 120 hours incubation, 37° C.
Description: (§1) Human lung adenocarcinoma A549 cell and mouse lymphoma EL-4 cell were used in this study. A549 cells were propagated as monolayer culture in Dulbecco's medium supplemented with 10% heat inactivated fetal bovine serum (FBS), penicillin G (60 μg/ml) and streptomycin (20 μg/ml) and harvested by trypsinization. EL-4 cells were maintained in RPMI medium supplemented with 10% FBS and the antibiotics in culture flasks.
(§2) Exponentially growing cells of A 549 or EL-4, which harvested from the cultures, were suspended in flask in the appropriate medium (Dulbecco's or RPMI medium supplemented with 10% FBS and antibiotics) at a concentration of 2×10^4 cells/ml or 2×10^5 cells/ml. respectively. Cells were treated with the graded doses of WF 2015 in plastic tissue culture dishes.
(§3) Concentration of the substance required for 50% inhibition of cell growth (IC50 value, μg/ml) was determined by plotting the logarithm of the drug concentration versus the growth rate (percentage of control) of the treated cells after 120 hours incubation for A 549 cells and 48 hours incubation for EL-4 cells at 37° C. in humidified atmosphere of 5% carbon dioxide.

[2] = test system: C57BL/6 responder cells (mixed lymphocyte reaction); assay: TEST 4: suppression of in vitro mixed lymphocyte reaction (MLR); format: cell-based, mouse (C57BL/6, BALB/C); settings: 4080 min
Description: The MLR tests were carried out in microtiter plates, with each well containing specified concentration of WF 2015 A and 5×10^5 C57BL/6 responder cells (H-2^b), 5×10^5 mitomycin C treated (25 μg/ml mitomycin C at 37° C. for 30 minutes) BALB/C stimulator cells (H-2^d) in 0.2 ml RPMI 1640 medium, supplemented with 10% fetal calf serum, 2mM glutamine, 3×10^-5 M 2-mercaptoethanol, 24 mM sodium bicarbonate, penicillin (50 unit/ml) and streptomycin (50 μ/ml). The cells were incubated at 37° C. in a humidified atmosphere of 5% CO2 :95% air for 68 hours and pulsed with ^3 H-thymidine (0.5 μCi) 4 hours before the cells were collected. Radio-activity of the cells was assayed by B-counter. From the resultant data, MLR suppression (%) was calculated.

[3] = test system: ICR strain mice; assay: TEST 3: acute toxicity of WF 2015 in mice; format: in vivo, mouse (ICR); settings: 100 mg/kg once a day for 5 days, 5 female ICR mice
[4] = Solubility of WF 2015 A and B (physicochemical properties)
[5] = test system: Human MX-1 mammary; assay: TEST 5: antitumor activity in vivo (human MX-1 mammary in nude mice); parameters: species or system human tumor in BALB/c nu/nu mice; settings: day 0→4, 7→11, 14→18, evaluated day 21, n = 8
Description: Human MX-1 mammary (each fragment, 3×3×3 mm), maintained s.c. by serial passage in female BALB/c nu/nu mice aged 6 weeks was implanted s.c. to female BALB/c nu/nu mice on day 0, and WF 2015 A or vehicle were given i.v. to the mice once a day on specified days (day0→4, day 7→11 and day 14→18).
Tumor weight was calculated as follows: (Tumor length and width were measured by caliper.)
Tumor weight (mg)=1/2×a×b^2, where a represents length and b represents width (mm).
Tumor weights (initial) and (last) were calculated on the first injection day (just before dosing) and on day 21, (the last evaluation day), respectively.
Eight mice were used for each test group and each vehicle-treated control group, respectively.
Drug efficacy was expressed as tumor growth inhibition (%).

[6] = test system: mouse lymphoma EL-4 cell; assay: TEST 2: in vitro cytotoxicity of WF 2015, EL-4 cells; format: cell-based; settings: 48 hours incubation, 37° C.
Description: as §1, §2, §3

[7] = test system: Mouse fibrosarcoma Meth A; assay: TEST 1: antitumor activity of WF 2015 A in experimental tumor system in mice (Meth A); format: in vivo, mouse (Balb/c); settings: at 14 days, mean ± S.E., n = 5, Control 1136.6 ± 138.3
Description: The antitumor activity of WF 2015 A was determined in experimental tumor system in mice.
Mouse fibrosarcoma Meth A was implanted intradermally into Balb/c mice (female, 8 weeks age) at an inoculum size of 1×10^5 cells per mouse. Twenty-four hours after the implantation of tumor cells, graded doses of WF 2015 A were administered to the mice intravenously. Treatments were once a day on day 1, 2, 3, 4 and 7, 8, 9, 10 after the tumor inoculation. Control animals received intravenous doses of physiological saline solution. The injection volume was 0.2 ml in all experiments. Five mice were used for each experimental group.
Tumor weight at 14 days after administration, as derived from caliper measurements of the length and width of tumors, was calculated by the formula: Tumor weight (mg)=1/2×a×b^2, where a represents the length and b represents the width (mm).

CO[C@@H]1[C@H](OC(=O)/C=C/C(O)C(C)O)CC[C@]2(CO2)[C@H]1[C@@]1(C)O[C@@H]1CC=C(C)C (some centres unmarked) [WF 2015 A]
IC50 value (concentration required for 50% inhibition of cell growth) [1]: 0.3 ng/mL | MLR suppression (%) ([2]; 0.0066 ng/ml): 0.0% | MLR suppression (%) ([2]; 0.02 ng/ml): 0.4% | MLR suppression (%) ([2]; 0.066 ng/ml): 8.5% | MLR suppression (%) ([2]; 0.2 ng/ml): 9.4% | MLR suppression (%) ([2]; 6.6 ng/ml): 49.1% | MLR suppression (%) ([2]; 20 ng/ml): 86.2% | MLR suppression (%) ([2]; 40 ng/ml): 88.0% | MLR suppression (%) ([2]; 161 ng/ml): 87.3% | MLR suppression (%) ([2]; 1,250 ng/ml): 89.0% | MLR suppression (%) ([2]; 10,000 ng/ml): 94.4% | Acute toxicity, abnormal symptom of the mice [3]: no abnormal symptom of the mice was observed | Solubility ([4]; Chloroform, methanol, acetone, ethanol): Soluble | Solubility ([4]; n-Hexane, water): Insoluble | Tumor Growth Inhibition (%) ([5]; 10 mg/kg i.v. once a day): 41.2% | Tumor Growth Inhibition (%) ([5]; 30 mg/kg i.v. once a day): 62.6% | IC50 value (concentration required for 50% inhibition of cell growth) [6]: 0.65 ng/mL | Tumor weight ([7]; 1.0 mg/kg i.v. once a day on day 1, 2, 3, 4 and 7, 8, 9, 10): 864 ± 108.7 mg | Tumor weight ([7]; 3.3 mg/kg i.v. once a day on day 1, 2, 3, 4 and 7, 8, 9, 10): 682 ± 131.5 mg | Tumor weight ([7]; 10 mg/kg i.v. once a day on day 1, 2, 3, 4 and 7, 8, 9, 10): 27.7 ± 105.6 mg
